# Where two headings read alike, the source gives them in different places.
# Tests used:
# [1] = target: T1, human OX2 receptor (Homo sapiens, UniProt O43614); assay: Measurement of orexin receptor antagonistic activity (calcium fluorescence, FLIPRtetra); assay type: cell-based; details: CHO, read-out: Human Orexin2 receptor inhibition (at 10 μM)
# T1 construct: expressed in transfected cells; host or cells: CHO cells
# T1 sequence (O43614 1-444): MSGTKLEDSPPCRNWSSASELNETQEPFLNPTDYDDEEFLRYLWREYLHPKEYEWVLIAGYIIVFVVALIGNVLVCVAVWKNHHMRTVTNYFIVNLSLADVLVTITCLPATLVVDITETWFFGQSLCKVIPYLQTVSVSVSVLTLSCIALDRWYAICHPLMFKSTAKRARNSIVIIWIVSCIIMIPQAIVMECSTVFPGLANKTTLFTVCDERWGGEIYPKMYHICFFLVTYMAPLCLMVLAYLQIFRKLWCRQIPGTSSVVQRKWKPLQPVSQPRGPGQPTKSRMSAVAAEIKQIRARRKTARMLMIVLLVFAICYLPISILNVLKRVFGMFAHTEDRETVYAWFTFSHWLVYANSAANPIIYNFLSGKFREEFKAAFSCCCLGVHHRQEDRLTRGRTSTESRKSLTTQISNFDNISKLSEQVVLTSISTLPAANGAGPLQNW
# Method: (§1) Measurement of Orexin Receptor Antagonistic Activity
# (§2) CHO cells forcibly expressing human OX1 receptor or human OX2 receptor were seeded in each well of 384 well black transparent bottom plate (BD Falcon) at 7,500 cells/well, and cultured for one day in a 5% CO2 incubator at 37° C. […] The plate was stood for 30 min in a 5% CO2 incubator at 37° C., and further stood at room temperature for 30 min. A test compound prepared by diluting with assay buffer B (HBSS, 20 mM HEPES, 0.1% BSA) was added at 10 μL/well, and then OX-A (OX1 receptor, final concentration; 1 nM) or OX-A (OX2 receptor, final concentration; 0.3 nM) was added at 10 μL/well, and the fluorescence value was measured by FLIPRtetra (Molecular Devices) every one sec for 2 min.
# [2] = target: T2, human OX1 receptor (Homo sapiens, UniProt O43613); assay: as above; assay type: cell-based; details: CHO, read-out: Human Orexin1 receptor inhibition (at 10 μM)
# T2 construct: expressed in transfected cells; host or cells: CHO cells
# T2 sequence (O43613 1-425): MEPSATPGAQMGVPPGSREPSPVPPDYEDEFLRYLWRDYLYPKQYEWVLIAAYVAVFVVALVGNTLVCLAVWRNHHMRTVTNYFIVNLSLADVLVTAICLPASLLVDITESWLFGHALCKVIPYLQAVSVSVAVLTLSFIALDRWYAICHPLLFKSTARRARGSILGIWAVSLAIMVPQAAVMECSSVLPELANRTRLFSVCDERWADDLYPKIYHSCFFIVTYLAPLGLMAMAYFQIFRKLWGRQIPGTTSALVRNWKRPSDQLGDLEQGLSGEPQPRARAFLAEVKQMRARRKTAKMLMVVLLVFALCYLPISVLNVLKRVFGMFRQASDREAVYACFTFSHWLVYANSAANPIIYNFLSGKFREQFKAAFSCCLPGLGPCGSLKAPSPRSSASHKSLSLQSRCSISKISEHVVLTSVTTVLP
# Method: as §1, §2
# [3] = 10 μM test compound, CHO cells expressing human OX2 receptor, OX-A 0.3 nM
# [4] = 10 μM test compound, CHO cells expressing human OX1 receptor, OX-A 1 nM
"inhibition at 10 µM [1, 3] [%]","inhibition at 10 µM [2, 4] [%]",Structure (SMILES),inhibition at 10 µM [1] [%],inhibition at 10 µM [2] [%]
19,18,"Cc1ccc(C#N)c(N2CCN(C(=O)c3ccccc3-n3nccn3)[C@H](C)CO2)n1 [Example 156, 6-methyl-2-((6R)-6-methyl-5-(2-(2H-1,2,3-triazol-2-yl)benzoyl)-1,2,5-oxadiazepan-2-yl)nicotinonitrile]",,
91,23,"Cc1cc(N2CCN(C(=O)c3cc(F)ccc3-n3nccn3)CCO2)nc(C)n1 [Example 14, (2-(2,6-dimethylpyrimidin-4-yl)-1,2,5-oxadiazepan-5-yl)(5-fluoro-2-(2H-1,2,3-triazol-2-yl)phenyl)methanone]",,
99,54,"Cc1cc(N2CCN(C(=O)c3cc(Cl)ccc3C3CCC3)CCO2)nc(C)n1 [Example 22, (5-chloro-2-cyclobutylphenyl) (2-(2,6-dimethylpyrimidin-4-yl)-1,2,5-oxadiazepan-5-yl)methanone]",,
102,5,"Cc1cc(N2CCN(C(=O)c3cc(F)c(F)cc3-n3nccn3)CCO2)nc(C)n1 [Example 15, (4,5-difluoro-2-(2H-1,2,3-triazol-2-yl)phenyl) (2-(2,6-dimethylpyrimidin-4-yl)-1,2,5-oxadiazepan-5-yl)methanone]",,
85,19,"COc1cc(N2CCN(C(=O)c3ccccc3-c3nccs3)CCO2)ccn1 [Example 37, (2-(2-methoxypyridin-4-yl)-1,2,5-oxadiazepan-5-yl)(2-(1,3-thiazol-2-yl)phenyl)methanone]",,
-3,3,"Cc1cc(C)nc(N2CCN(C(=O)c3ccc(C#N)cc3)CCO2)n1 [Example 50, 4-((2-(4,6-dimethylpyrimidin-2-yl)-1,2,5-oxadiazepan-5-yl)carbonyl) benzonitrile]",,
101,41,"Cc1cc(N2CCN(C(=O)c3ccccc3-c3ncccn3)CCO2)nc(C)n1 [Example 42, (2-(2,6-dimethylpyrimidin-4-yl)-1,2,5-oxadiazepan-5-yl)(2-(pyrimidin-2-yl)phenyl)methanone]",,
101,25,"Cc1cc(N2CCN(C(=O)c3ccccc3-n3nccn3)CCO2)nc(C)n1 [Example 20, (2-(2,6-dimethylpyrimidin-4-yl)-1,2,5-oxadiazepan-5-yl) (2-(2H-1,2,3-triazol-2-yl)phenyl)methanone]",,
96,101,"C[C@H]1CN(C(=O)c2ccccc2-c2nccs2)CCN(c2ccc(Cl)cn2)O1 [Example 90, ((7S)-2-(5-chloropyridin-2-yl)-7-methyl-1,2,5-oxadiazepan-5-yl)(2-(1,3-thiazol-2-yl)phenyl)methanone]",,
100,36,"Cc1cc(N2CCN(C(=O)c3ccccc3-c3csc(C)n3)CCO2)nc(C)n1 [Example 19, (2-(2,6-dimethylpyrimidin-4-yl)-1,2,5-oxadiazepan-5-yl) (2-(2-methyl-1,3-thiazol-4-yl)phenyl)methanone]",,
69,11,"Cc1ccc(-n2nccn2)c(C(=O)N2CCN(c3ncccc3Cl)OC[C@H]2C)c1 [Example 122, ((6R)-2-(3-chloropyridin-2-yl)-6-methyl-1,2,5-oxadiazepan-5-yl) (5-methyl-2-(2H-1,2,3-triazol-2-yl)phenyl)methanone]",,
101,40,"Cc1nccc(N2CCN(C(=O)c3cc(Cl)ccc3-c3ncccn3)[C@H](C)CO2)n1 [Example 229, (5-chloro-2-(pyrimidin-2-yl)phenyl)((6R)-6-methyl-2-(2-methylpyrimidin-4-yl)-1,2,5-oxadiazepan-5-yl)methanone]",,

# The next lines start with the molecule.
Structure (SMILES),"inhibition at 10 µM [1, 3] [%]","inhibition at 10 µM [2, 4] [%]",inhibition at 10 µM [1] [%],inhibition at 10 µM [2] [%]
"Cc1ccc(-n2nccn2)c(C(=O)N2CCN(c3cccc(C(F)(F)F)n3)OC[C@H]2C)c1 [Example 128, (5-methyl-2-(2H-1,2,3-triazol-2-yl)phenyl) ((6R)-6-methyl-2-(6-(trifluoromethyl)pyridin-2-yl)-1,2,5-oxadiazepan-5-yl)methanone]",96,99,,
"Cc1cncc(N2CCN(C(=O)c3cc(C)ccc3-n3nccn3)[C@H](C)CO2)c1 [Example 131, ((6R)-6-methyl-2-(5-methylpyridin-3-yl)-1,2,5-oxadiazepan-5-yl) (5-methyl-2-(2H-1,2,3-triazol-2-yl)phenyl)methanone]",,,38,-7
"COc1ccnc(N2CCN(C(=O)c3cc(C)ccc3-n3nccn3)[C@H](C)CO2)c1 [Example 137, ((6R)-2-(4-methoxypyridin-2-yl)-6-methyl-1,2,5-oxadiazepan-5-yl) (5-methyl-2-(2H-1,2,3-triazol-2-yl)phenyl)methanone]",,,100,93
"Cc1nc(N2C[C@H](C)N(C(=O)c3cc(Cl)ccc3-n3nccn3)[C@H](C)CO2)cc(C(F)(F)F)n1 [Example 183, (5-chloro-2-(2H-1,2,3-triazol-2-yl)phenyl)((4S,6R)-4,6-dimethyl-2-(2-methyl-6-(trifluoromethyl)pyrimidin-4-yl)-1,2,5-oxadiazepan-5-yl)methanone]",103,105,,
"Cc1ccc(-n2nccn2)c(C(=O)N2CCN(c3ccc(F)cc3)OC[C@H]2C)c1 [Example 135, ((6R)-2-(4-fluorophenyl)-6-methyl-1,2,5-oxadiazepan-5-yl) (5-methyl-2-(2H-1,2,3-triazol-2-yl)phenyl)methanone]",,,88,15
"Cc1ccc(-n2nccn2)c(C(=O)N2[C@H](C)CON(c3cc(C(F)(F)F)nc(C)n3)C[C@@H]2C)c1 [Example 178, ((4S,6R)-4,6-dimethyl-2-(2-methyl-6-(trifluoromethyl)pyrimidin-4-yl)-1,2,5-oxadiazepan-5-yl) (5-methyl-2-(2H-1,2,3-triazol-2-yl)phenyl)methanone]",99,105,,
"Cc1nc(C(F)F)cc(N2CCN(C(=O)c3cc(F)ccc3-n3nccn3)C[C@H](C)O2)n1 [Example 100, ((7S)-2-(6-(difluoromethyl)-2-methylpyrimidin-4-yl)-7-methyl-1,2,5-oxadiazepan-5-yl)(5-fluoro-2-(2H-1,2,3-triazol-2-yl)phenyl)methanone]",102,42,,
"Cc1cc(C)nc(N2CCN(C(=O)c3cccc4ccn(C)c34)CCO2)n1 [Example 71, (2-(4,6-dimethylpyrimidin-2-yl)-1,2,5-oxadiazepan-5-yl) (1-methyl-1H-indol-7-yl) methanone]",,,99,53
"Cc1cc(C)nc(N2CCN(C(=O)c3cccc4nccnc34)CCO2)n1 [Example 67, (2-(4,6-dimethylpyrimidin-2-yl)-1,2,5-oxadiazepan-5-yl) (quinoxalin-5-yl)methanone]",,,44,5
"Cc1cc(N2CCN(C(=O)c3ccccc3-n3nccn3)[C@H](C)CO2)nc(C(C)(C)C)n1 [Example 154, ((6R)-2-(2-tert-butyl-6-methylpyrimidin-4-yl)-6-methyl-1,2,5-oxadiazepan-5-yl)(2-(2H-1,2,3-triazol-2-yl)phenyl)methanone]",91,97,,

# Source: US10131653B2, “Heterocyclic compound” (TAKEDA PHARMACEUTICAL COMPANY LIMITED, priority 2015, dated 2018)
